Source: article PMC6014687 (Journal of Medicinal Chemistry, 2016)
Where “and” joins values, the source holds several entries; their conditions need not be identical. Equal entries are not always repeated. Where two headings read alike, the source gives them in different places.

Columns and labels:
SK-OV-3 cells [1] = experiment: cells; conditions: Homo sapiens, SK-OV-3, 96 h
in vivo [2] = conditions: female, BALB/c, mouse, 5 mg/kg; for AUC(0-inf): AUCinf; for AUC(0-t): AUClast
Procedure: Experimental work was done in accordance with Home Office regulations under the
UK National Cancer Research CR I Guidelines with local Ethical Committee approval.9
Female BALB/c and Ncr-Foxn1nu mice were obtained from Charles River (Margate, UK).
Animals were adapted to laborator y conditions for at least 1 week prior to dosing and were
allowed food and water ad libitum. Compounds were administered iv or po (0.1 m L/10 g) in
hydrox yprop yl beta c ycl odextrin in 50 mM sodium citrate buff er (Ncr-Foxn1nu PK). Blood
spotted onto Whatman FTA-DMPK B cards (VWR) together with a calibration curve and
qualit y controls spiked in control blood. Cards were allowed to dr y at room temperature for at
least 2 h. 6 mm discs were punched from the cards and extracted with 200 µ L methanol
containing 500 nM olo moucine as an internal standard. Following centrifugation, extracts
were anal yzed b y multiple reaction monitoring of precursor and product ions by LC-ES I-
% formic acid and methanol on a Phenomenex (Macclesfi eld, UK) Kinet exTM C18, 5 cm x
2.6 µ m, 2.1 mm i.d UHP LC column. Pharmac okinetic parameters were derived from non -

physchem = conditions: pH 7.4
in vivo [3] = conditions: female, mouse, po, 20 mg/kg
[4] = system: SK-OV-3 human ovarian carcinoma xenograft; conditions: female, NCr athymic, mouse, in vivo
WM266.4 cells = conditions: WM266.4, 30 h
recombinant human pirin = recombinant human pirin (Homo sapiens, UniProt O00625)
recombinant human pirin, sequence (O00625 whole entry): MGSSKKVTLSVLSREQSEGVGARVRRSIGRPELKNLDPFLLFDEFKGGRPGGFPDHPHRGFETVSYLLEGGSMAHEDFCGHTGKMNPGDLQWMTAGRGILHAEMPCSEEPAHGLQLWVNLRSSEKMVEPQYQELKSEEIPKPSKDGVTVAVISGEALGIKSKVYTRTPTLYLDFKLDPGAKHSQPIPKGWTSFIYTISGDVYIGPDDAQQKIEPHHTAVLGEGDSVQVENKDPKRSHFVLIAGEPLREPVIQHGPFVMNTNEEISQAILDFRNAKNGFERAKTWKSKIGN

SK-OV-3 cells [5] = system: SK-OV-3 cells
[6] = read-out: SK-OV-3 pGI50±SEM (converted)

| Compound | GI50 (SK-OV-3 cells [1]; read-out: SK-OV-3 GI50) | GI50 (SK-OV-3 cells [1]; [6]) | further results |
| --- | --- | --- | --- |
| COCCOc1ccc2cc(C(=O)Nc3cc(NC(=O)c4ccc5c(c4)OCCO5)ccc3C)ccc2n1 [Compound 21, N-(5-(2,3-Dihydrobenzo[b][1,4]dioxine-6-carboxamido)-2-methylphenyl)-2-(2-methoxyethoxy)quinoline-6-carboxamide] | 4.3 nM | 4.27 nM | – |
| Cc1ccc(NC(=O)c2ccc3c(c2)OCCO3)cc1NC(=O)c1ccc2ncccc2c1 [Compound 15, N-(5-(2,3-Dihydrobenzo[b][1,4]dioxine-6-carboxamido)-2-methylphenyl)quinoline-6-carboxamide] | 8.6 nM | 2.51 nM | – |
| Cc1ccc2cc(C(=O)Nc3cc(NS(=O)(=O)c4ccc5c(c4)OCCO5)ccc3C)ccc2n1 [Compound 14, N-(5-(2,3-Dihydrobenzo[b][1,4]dioxine-6-sulfonamido)-2-methylphenyl)-2-methylquinoline-6-carboxamide] | > 1000 nM | > 1000 nM | – |
| Cc1ccc(NC(=O)c2ccc3c(c2)OCCO3)cc1NC(=O)c1ccc2nc(OCCN)ccc2c1 [Compound 29, 2-(2-Aminoethoxy)-N-(5-(2,3-dihydrobenzo[b][1,4]dioxine-6-carboxamido)-2-methylphenyl)quinoline-6-carboxamide] | 3.1 nM | 3.09 nM | – |
| Cc1ccc2cc(C(=O)Nc3cc(NC(=O)c4cccc5c4OCCO5)ccc3C)ccc2n1 [Compound 6, N-(5-(2,3-Dihydrobenzo[b][1,4]dioxine-5-carboxamido)-2-methylphenyl)-2-methylquinoline-6-carboxamide] | > 1000 nM | > 1000 nM | – |
| Cc1ccc(NC(=O)c2ccc3c(c2)OCCO3)cc1NC(=O)c1ccc2nc(OCCN3CCCC3)ccc2c1 [Compound 26, N-(5-(2,3-Dihydrobenzo[b][1,4]dioxine-6-carboxamido)-2-methylphenyl)-2-(2-(pyrrolidin-1-yl)ethoxy)quinoline-6-carboxamide] | – | – | half-life at 24 h (in vivo [2]): 5.3 h; AUC(0-inf) (in vivo [2]; iv): 14.8 µM·h; AUC(0-t) (in vivo [2]; iv): 14.1 µM·h; clearance (in vivo [2]; iv, Cl): 9.8 mL/min/kg; Cmax (in vivo [2]; iv): 3830 nM; Vd (in vivo [2]; iv, Vss): 3.26 L/kg; Vd at 24 h (in vivo [2]; iv, Vss): 4.2 L/kg; Vd (in vivo [2]; iv, Vz): 5.78 L/kg; clearance at 24 h (in vivo [2]; iv, blood Cl): 9.2 mL/min/kg; AUC(0-t) at 24 h (in vivo [2]; po, AUC0–24h PO): 5.8 µM·h; AUC(0-inf) (in vivo [2]; po): 6.09 µM·h; AUC(0-t) (in vivo [2]; po): 5.02 µM·h; Cmax (in vivo [2]; po): 828 nM; chromatographic logD (physchem): 2.1; AUC(0-inf) (in vivo [3]; Ncr-Foxn1nu (athymic), AUCinf): 1.58 µM·h; AUC(0-t) (in vivo [3]; Ncr-Foxn1nu (athymic), AUClast): 1.53 µM·h; Cmax (in vivo [3]; Ncr-Foxn1nu (athymic), Cmax): 439 nM; AUC(0-t) at 24 h (in vivo [3]; athymic (Ncr-Foxn1nu), AUC0–24h PO): 1.9 µM·h; total tumor concentrations [4]: ≤ 940 nM |
| Cc1ccc2cc(C(=O)Nc3c(C)ccc(NC(=O)c4ccc5c(c4)OCCO5)c3C)ccc2n1 [Compound 11, N-(3-(2,3-Dihydrobenzo[b][1,4]dioxine-6-carboxamido)-2,6-dimethylphenyl)-2-methylquinoline-6-carboxamide] | > 1000 nM | > 1000 nM | – |
| Cc1ccc(NC(=O)c2ccc3c(c2)OCCO3)cc1NC(=O)c1ccc2nc(OCCCN3CCOCC3)ccc2c1 [Compound 23, N-(5-(2,3-Dihydrobenzo[b][1,4]dioxine-6-carboxamido)-2-methylphenyl)-2-(3-morpholinopropoxy)quinoline-6-carboxamide] | 7.4 nM | 7.41 nM | – |
| Cc1ccc2cc(C(=O)Nc3cc(NC(=O)c4ccc5c(c4)OCCO5)c(C)cc3C)ccc2n1 [Compound 12, N-(5-(2,3-Dihydrobenzo[b][1,4]dioxine-6-carboxamido)-2,4-dimethylphenyl)-2-methylquinoline-6-carboxamide] | > 1000 nM | > 1000 nM | – |
| Cc1ccc(NC(=O)c2ccc3c(c2)OCCO3)cc1NC(=O)c1ccc2nc(OCCN3CCCCC3)ccc2c1 [Compound 25, N-(5-(2,3-Dihydrobenzo[b][1,4]dioxine-6-carboxamido)-2-methylphenyl)-2-(2-(piperidin-1-yl)ethoxy)quinoline-6-carboxamide] | 1.1 nM | – | – |
| CCC(=O)NCCOc1ccc2cc(C(=O)Nc3cc(NC(=O)c4ccc5c(c4)OCCO5)ccc3C)ccc2n1 [Compound 27] | 9.1 nM | 9.12 nM | – |
| Cc1ccc(NC(=O)c2ccc3c(c2)OCCO3)cc1NC(=O)c1ccc2nc(OCCCN(C)C)ccc2c1 [Compound 22, N-(5-(2,3-Dihydrobenzo[b][1,4]dioxine-6-carboxamido)-2-methylphenyl)-2-(3-(dimethylamino)propoxy)quinoline-6-carboxamide] | 1.1 nM | 1.15 nM | – |
| Cc1ccc(NC(=O)c2cccc3c2OCCO3)cc1NC(=O)c1ccc2nc(OCCN3CCCC3)ccc2c1 [Compound 28, N-(5-(2,3-Dihydrobenzo[b][1,4]dioxine-5-carboxamido)-2-methylphenyl)-2-(2-(pyrrolidin-1-yl)ethoxy)quinoline-6-carboxamide] | > 1000 nM | > 1000 nM | antimigratory activity (WM266.4 cells): no measurable antimigratory activity; AS (apparent stoichiometry) (recombinant human pirin): 1.18 and 1.11 and 1.80; SK-OV-3 pGI50±SEM (SK-OV-3 cells [5]): <6 |
